From patent US6355799B1, “Substituted benzene compounds, process for their preparation, and herbicidal and defoliant compositions containing them” (ISK Americas Incorporated, priority 1997, dated 2002)

Experiments:
Assay type in all cases: in vivo
[1] = test system: upland rice (Oryza sp., var. Tebonnet, RICE); test: Post-emerge test, crop safety; conditions: rating scale 0-100 (0 no damage, 100 complete death), 14 days after application
Summary of the method: (§1)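 Compounds in acetone were track-sprayed at 15-1000 g ai/ha (187 l/ha) on sandy loam pots: pre-emerge one day after seeding, post-emerge at 2-3 leaf stage with 0.25% v/v non-ionic surfactant. Phytotoxicity was rated 14 days later on a 0 (no damage) to 100 (complete death) scale.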

[2] = test system: field corn (Zea mays L., var. Dekalb 535, CORN); test: Post-emerge test, crop safety; conditions: rating scale 0-100 (0 no damage, 100 complete death), 14 days after application
Summary of the method: as §1

[3] = test system: green foxtail (Setaria viridis, SETVI); test: Pre-emerge test, greenhouse herbicide activity screening; conditions: rating scale 0-100, 14 days after application
Summary of the method: as §1

[4] = test system: velvetleaf (Abutilon theophrasti, ABUTH); test: as above; conditions: rating scale 0-100, 14 days after application
Summary of the method: as §1

[5] = test system: sicklepod (Cassia obtusifolia, CASOB); test: as above; conditions: rating scale 0-100, 14 days after application
Summary of the method: as §1

[6] = test system: large crabgrass (Digitaria sanguinalis, DIGSA); test: as above; conditions: rating scale 0-100, 14 days after application
Summary of the method: as §1

[7] = test system: barnyardgrass (Echinochloa crus-galli, ECHCG); test: as above; conditions: rating scale 0-100, 14 days after application
Summary of the method: as §1

[8] = test system: ivyleaf morningglory (Ipomoea hederacea, IPOHE); test: as above; conditions: rating scale 0-100, 14 days after application
Summary of the method: as §1

[9] = test system: johnsongrass (Sorghum halepense, SORHA); test: as above; conditions: rating scale 0-100, 14 days after application
Summary of the method: as §1

[10] = test system: lambsquarters (Chenopodium album, CHEAL); test: as above; conditions: rating scale 0-100, 14 days after application
Summary of the method: as §1

[11] = test system: redroot pigweed (Amaranthus retroflexus, AMARE); test: as above; conditions: rating scale 0-100, 14 days after application
Summary of the method: as §1

[12] = test system: green foxtail (Setaria viridis, SETVI); test: Post-emerge test, greenhouse herbicide activity screening; conditions: rating scale 0-100 (0 no damage, 100 complete death), 14 days after application
Summary of the method: (§2)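 Compounds in acetone were track-sprayed at 187 l/ha, 15–1000 g ai/ha, onto sandy loam pots. Pre-emerge seeds were sown one day before spraying, with surface watering afterwards. Post-emerge plants were at the 2–3 leaf stage and sprayed with 0.25% v/v non-ionic surfactant. Injury was rated 0–100 at 14 days.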

[13] = test system: velvetleaf (Abutilon theophrasti, ABUTH); test: as above; conditions: rating scale 0-100 (0 no damage, 100 complete death), 14 days after application
Summary of the method: as §2

[14] = test system: sicklepod (Cassia obtusifolia, CASOB); test: as above; conditions: rating scale 0-100 (0 no damage, 100 complete death), 14 days after application
Summary of the method: as §2

[15] = test system: large crabgrass (Digitaria sanguinalis, DIGSA); test: as above; conditions: rating scale 0-100 (0 no damage, 100 complete death), 14 days after application
Summary of the method: as §2

[16] = test system: barnyardgrass (Echinochloa crus-galli, ECHCG); test: as above; conditions: rating scale 0-100 (0 no damage, 100 complete death), 14 days after application
Summary of the method: as §2

[17] = test system: ivyleaf morningglory (Ipomoea hederacea, IPOHE); test: as above; conditions: rating scale 0-100 (0 no damage, 100 complete death), 14 days after application
Summary of the method: as §2

[18] = test system: redroot pigweed (Amaranthus retroflexus, AMARE); test: as above; conditions: rating scale 0-100 (0 no damage, 100 complete death), 14 days after application
Summary of the method: as §2

[19] = test system: common ragweed (Ambrosia artemisizfolia L., AMBEL); test: as above; conditions: rating scale 0-100 (0 no damage, 100 complete death), 14 days after application
Summary of the method: as §2

[20] = test system: johnsongrass (Sorghum halepense, SORHA); test: as above; conditions: rating scale 0-100 (0 no damage, 100 complete death), 14 days after application
Summary of the method: as §2

[21] = test system: lambsquarters (Chenopodium album, CHEAL); test: as above; conditions: rating scale 0-100 (0 no damage, 100 complete death), 14 days after application
Summary of the method: as §2

[22] = test system: upland rice (Oryza sp., var. Tebonnet, RICE); test: Pre-emerge test, crop safety; conditions: rating scale 0-100, 14 days after application
Summary of the method: (§3)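 Sandy loam pots; pre-emerge: sown 1 d pre-spray, surface-watered after, then bottom-watered. Post-emerge: sown 8–21 d before, 2–3 leaf stage, + 0.25% v/v NIS, bottom-watered. Acetone, 187 l/ha track spray, 15–1000 g ai/ha. 0–100 injury score, day 14.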

[23] = test system: field corn (Zea mays L., var. Dekalb 535, CORN); test: Pre-emerge test, crop safety; conditions: rating scale 0-100, 14 days after application
Summary of the method: as §3

CCCOC(=O)C(C)(Cl)Cc1c(OC)c(Cl)cc(F)c1-n1c(=O)cc(C(F)(F)F)n(C)c1=O (stereo not shown) [14-35]
100: Post-emerge phytotoxicity rating RICE (crop damage) ([1]; Rate 250 g ai/ha) | Post-emerge phytotoxicity rating CORN (crop damage) ([2]; Rate 63 g ai/ha) | Post-emerge phytotoxicity rating CORN (crop damage) ([2]; Rate 250 g ai/ha) | Pre-emerge herbicidal activity, phytotoxicity rating SETVI ([3]; 250 g ai/ha) | Pre-emerge herbicidal activity, phytotoxicity rating ABUTH ([4]; 63 g ai/ha) | Pre-emerge herbicidal activity, phytotoxicity rating ABUTH ([4]; 250 g ai/ha) | Pre-emerge herbicidal activity, phytotoxicity rating CHEAL ([10]; 250 g ai/ha) | Pre-emerge herbicidal activity, phytotoxicity rating AMARE ([11]; 63 g ai/ha) | Pre-emerge herbicidal activity, phytotoxicity rating AMARE ([11]; 250 g ai/ha) | Post-emerge Herbicidal Activity, phytotoxicity rating ABUTH ([13]; Rate 250 g ai/ha) | Post-emerge Herbicidal Activity, phytotoxicity rating ECHCG ([16]; Rate 63 g ai/ha) | Post-emerge Herbicidal Activity, phytotoxicity rating ECHCG ([16]; Rate 250 g ai/ha) | Post-emerge Herbicidal Activity, phytotoxicity rating IPOHE ([17]; Rate 250 g ai/ha) | Post-emerge Herbicidal Activity, phytotoxicity rating AMARE ([18]; Rate 63 g ai/ha) | Post-emerge Herbicidal Activity, phytotoxicity rating AMARE ([18]; Rate 250 g ai/ha) | Post-emerge Herbicidal Activity, phytotoxicity rating AMBEL ([19]; Rate 63 g ai/ha) | Post-emerge Herbicidal Activity, phytotoxicity rating AMBEL ([19]; Rate 250 g ai/ha) | Post-emerge Herbicidal Activity, phytotoxicity rating CHEAL ([21]; Rate 63 g ai/ha) | Post-emerge Herbicidal Activity, phytotoxicity rating CHEAL ([21]; Rate 250 g ai/ha)
0: Pre-emerge herbicidal activity, phytotoxicity rating CASOB ([5]; 63 g ai/ha) | Pre-emerge herbicidal activity, phytotoxicity rating CASOB ([5]; 250 g ai/ha) | Pre-emerge herbicidal activity, phytotoxicity rating ECHCG ([7]; 63 g ai/ha) | Pre-emerge herbicidal activity, phytotoxicity rating IPOHE ([8]; 63 g ai/ha) | Pre-emerge herbicidal activity, phytotoxicity rating IPOHE ([8]; 250 g ai/ha) | Pre-emerge herbicidal activity, phytotoxicity rating SORHA ([9]; 63 g ai/ha) | Post-emerge Herbicidal Activity, phytotoxicity rating CASOB ([14]; Rate 63 g ai/ha) | Pre-emerge phytotoxicity rating, crop damage RICE ([22]; 63 g ai/ha) | Pre-emerge phytotoxicity rating, crop damage CORN ([23]; 63 g ai/ha)
50: Pre-emerge herbicidal activity, phytotoxicity rating DIGSA ([6]; 63 g ai/ha) | Pre-emerge herbicidal activity, phytotoxicity rating SORHA ([9]; 250 g ai/ha) | Pre-emerge herbicidal activity, phytotoxicity rating CHEAL ([10]; 63 g ai/ha) | Post-emerge Herbicidal Activity, phytotoxicity rating SETVI ([12]; Rate 63 g ai/ha) | Post-emerge Herbicidal Activity, phytotoxicity rating DIGSA ([15]; Rate 63 g ai/ha)
95: Pre-emerge herbicidal activity, phytotoxicity rating DIGSA ([6]; 250 g ai/ha) | Post-emerge Herbicidal Activity, phytotoxicity rating SETVI ([12]; Rate 250 g ai/ha) | Post-emerge Herbicidal Activity, phytotoxicity rating ABUTH ([13]; Rate 63 g ai/ha) | Post-emerge Herbicidal Activity, phytotoxicity rating DIGSA ([15]; Rate 250 g ai/ha)
25: Pre-emerge phytotoxicity rating, crop damage CORN ([23]; 250 g ai/ha)
99: Pre-emerge herbicidal activity, phytotoxicity rating ECHCG ([7]; 250 g ai/ha)
30: Post-emerge Herbicidal Activity, phytotoxicity rating SORHA ([20]; Rate 63 g ai/ha)
10: Pre-emerge phytotoxicity rating, crop damage RICE ([22]; 250 g ai/ha)
90: Post-emerge Herbicidal Activity, phytotoxicity rating CASOB ([14]; Rate 250 g ai/ha)
80: Post-emerge phytotoxicity rating RICE (crop damage) ([1]; Rate 63 g ai/ha) | Pre-emerge herbicidal activity, phytotoxicity rating SETVI ([3]; 63 g ai/ha)
70: Post-emerge Herbicidal Activity, phytotoxicity rating IPOHE ([17]; Rate 63 g ai/ha) | Post-emerge Herbicidal Activity, phytotoxicity rating SORHA ([20]; Rate 250 g ai/ha)
